Laboratory results: patent publication US20210371353A1, “FERTILIZER COMPOSITIONS AND PLANTS CONTAINING PROTOCATECHUIC ACID, AND USES THEREOF” (priority 2020, published 2021)
“Also recorded” adds a separate entry of the source.

How the values were obtained:
lettuce [1] = experiment: Size of roots and leaves of harvested lettuce; assay type: in vivo; details: for Size of roots and leaves / plant growth compared with control: approximately eight weeks (two months) after sowing; for Leaves (each) Width: control 3-5 cm; for Root (as a whole) Width: control 6 cm; for Root (as a whole) Length: control 8 cm; for Leaves (each) Length: control 20-21 cm
Description: A commercial plant box as shown in FIG. 1A was used for the experiment. The bottom one half was filled with sandbox sand, and the top layer was filled with six inches of non-fertilized soil. The level of the soil was four inches below the top of the container. The plant box was partitioned into three sections with physical barriers in between, from the top of the soil to the bottom of the plant box, as illustrated in FIG. 1B.
A single straight line of 0.25-inch-deep trough was formed in each section. Then, lettuce seeds were placed in the trough according to the methods laid out in Table 1 below. Each section was watered daily with tap water.
Approximately eight weeks after sowing, a portion of each group was harvested, and size of the roots and leaves of the harvested lettuce was measured, as summarized in Table 3 below.

red azaleas = experiment: Flowering of red azaleas; assay type: in vivo, azalea (red bird variety); details: small amount of PCA crystals around the stem
Description: In one of the two azalea plants (red bird variety), small amount of PCA crystals were placed around the stem, and both were watered daily. The plant treated with PCA bloomed in three weeks, and the other plant bloomed in seven weeks.

lettuce [2] = experiment: Remaining lettuce observed until final harvest (wilting, size, pest holes); assay type: in vivo; details: approximately 14 weeks after sowing
pink azaleas = experiment: Flowering and sprouting of pink azaleas; assay type: in vivo, pink azalea
Description: In the experimental plant, small amount of PCA crystals were placed around the stem, and both plants were watered daily.

lettuce [3] = experiment: Browning of harvested and cut lettuce; assay type: in vivo
Description: Browning of the lettuce harvested at approximately eight weeks after sowing were examined for experimental groups 2 and 3. The cut end of the stalk and the cut area on the leaves were observed. First browning appeared on the cut end six days after harvesting and cutting.

rice = details: had been reported; cited from earlier work
[4] = approximately eight weeks after sowing

Row | SMILES | Size of roots and leaves / plant growth compared with control (lettuce [1]) | Leaves (each) Width (lettuce [1]; [4]) | Root (as a whole) Width (lettuce [1]; [4]) | Root (as a whole) Length (lettuce [1]; [4]) | Leaves (each) Length (lettuce [1]; [4]) | Speed of flowering compared with untreated plant (red azaleas) | Time to bloom (red azaleas; watered daily, untreated plant seven weeks) | Size of leaves and roots at final harvest, group 3 versus group 2 (lettuce [2]) | Blooming compared with control plant (pink azaleas; approximately five weeks after placing PCA crystals around the stem) | Flowering, buds and shoots compared with control plant (pink azaleas; approximately seven weeks after placing PCA crystals, control wilted) | Buds compared with control plant (pink azaleas; approximately six weeks after placing PCA crystals) | Overall flowering, sprouting and budding compared with control (pink azaleas; summary) | Time to first browning on the cut end after harvesting and cutting (lettuce [3]; lettuce harvested approximately eight weeks after sowing) | Browning in the cut areas of the leaves (lettuce [3]; six days after cutting) | Browning on cut end of the stalk compared with control (lettuce [3]; six days after harvesting and cutting) | Effect on growth of some plant species, e.g., rice (rice) | Shape of root and leaves compared with other groups (lettuce [1]; [4])
1 | O=C(O)c1ccc(O)c(O)c1 [PCA crystals, protocatechuic acid] | bigger roots and leaves than the control | 4-6 cm | 9 cm | 10 cm | 24 cm | more than twice as fast | three | larger and wider leaves and larger roots than experimental group 2 | started to bloom before the control plant did, and had more flowers blooming than the control plant | continued to flower and had more buds and taller shoot of stems than the control | had many more buds on the top yet to flower | flowered sooner, added sprouts sooner, and had budding that lasted longer than the control | six | no browning was observed; also recorded: no browning was seen where leaves were cut | not as thick as in the control group; also recorded: did not show thick brown covering on the stump | – | –
2 | O=C(O)c1ccc(O)c(O)c1 [PCA, protocatechuic acid] | enhanced plant growth; larger root system and larger leaves than the control | – | – | – | – | – | – | – | – | – | – | – | – | – | – | no effect on growth | –
3 | O=C(O)c1ccc(O)c(O)c1 [PCA coating, protocatechuic acid] | – | 4-7 cm | 3-5 cm | 8-11 cm | 17-18 cm | – | – | – | – | – | – | – | – | – | – | – | the root was relatively narrower, and the leaves were relatively wider and shorter; also recorded: a different shaped single root
